Data reported in patent publication US20100029657A1, “Bridged, Bicyclic Heterocyclic or Spiro Bicyclic Heterocyclic Derivatives of Pyrazolo[1, 5-A]Pyrimidines, Methods for Preparation and Uses Thereof” (Wyeth, priority 2008, published 2010).
Structures can show the parent of a compound that is named as a salt.

target: T1, Flag/GST-tagged recombinant human B-Raf (Homo sapiens, UniProt P15056); experiment: B-Raf kinase assay (phosphorylation of GST-MEK1, phospho-MEK1 antibody/Europium detection); format: biochemical; details: B-Raf IC50 Data for compounds of Formula A; read-out: Mean IC50
T1 construct: Flag; GST; made in house; host or cells: Sf9 insect cells (B-Raf); E. coli (MEK1-GST)
T1 sequence (P15056 whole entry): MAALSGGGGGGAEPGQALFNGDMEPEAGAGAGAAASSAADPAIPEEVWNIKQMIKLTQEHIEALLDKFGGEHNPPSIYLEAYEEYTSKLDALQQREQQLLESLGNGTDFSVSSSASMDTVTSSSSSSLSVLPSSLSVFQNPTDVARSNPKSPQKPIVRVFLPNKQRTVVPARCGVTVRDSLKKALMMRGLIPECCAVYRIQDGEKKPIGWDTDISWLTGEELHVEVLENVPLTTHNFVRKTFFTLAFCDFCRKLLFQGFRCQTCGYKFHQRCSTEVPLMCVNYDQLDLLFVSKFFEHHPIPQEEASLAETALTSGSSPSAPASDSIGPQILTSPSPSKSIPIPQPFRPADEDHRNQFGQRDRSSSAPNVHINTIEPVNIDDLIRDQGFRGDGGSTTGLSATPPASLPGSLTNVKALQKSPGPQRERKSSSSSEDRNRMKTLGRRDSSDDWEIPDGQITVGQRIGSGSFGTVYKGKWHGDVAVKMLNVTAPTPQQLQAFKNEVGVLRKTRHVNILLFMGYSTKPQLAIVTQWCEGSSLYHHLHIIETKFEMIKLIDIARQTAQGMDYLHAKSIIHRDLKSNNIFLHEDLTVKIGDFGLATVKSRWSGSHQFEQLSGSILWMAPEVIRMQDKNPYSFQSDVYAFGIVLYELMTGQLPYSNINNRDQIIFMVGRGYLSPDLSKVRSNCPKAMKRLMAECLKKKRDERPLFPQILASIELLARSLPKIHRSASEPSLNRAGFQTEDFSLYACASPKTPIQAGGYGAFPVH
Outline: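 Active B-Raf (0.2 nM) phosphorylates GST-MEK1 in 20 mM MOPS pH 7.2 buffer with DTT, vanadate and 0.01% Triton X-100. The Mg/ATP cocktail (200 μM ATP, 40 mM MgCl2) is added, then incubation runs 45 min at RT. Product is captured on anti-GST plates and detected by anti-phospho-MEK1 plus Europium-anti-rabbit fluorescence, giving % inhibition per concentration.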

IC50 [µM] | Compound
< 0.0003 | Cc1cc(N2C[C@@H]3C[C@H]2CN3C)ccc1-c1ccnc2c(-c3ccc(F)c(O)c3)c(-c3ccncc3)nn12 [Example 56, 2-Fluoro-5-(7-(2-methyl-4-((1S,4S)-5-methyl-2,5-diazabicyclo[2.2.1]heptan-2-yl)phenyl)-2-(pyridin-4-yl)pyrazolo[1,5-a]pyrimidin-3-yl)phenol]
< 0.0003 | Cc1cc(N2C[C@@H]3C[C@H]2CN3C)ccc1-c1ccnc2c(-c3cccc(O)c3)c(-c3ccncc3)nn12 [Example 58, 3-(7-(2-Methyl-4-((1S,4S)-5-methyl-2,5-diazabicyclo[2.2.1]heptan-2-yl)phenyl)-2-(pyridin-4-yl)pyrazolo[1,5-a]pyrimidin-3-yl)phenol]
< 0.0003 | Oc1cccc(-c2c(-c3ccncc3)nn3c(-c4ccc(N5C[C@@H]6C[C@H]5CN6)cc4Cl)ccnc23)c1 [Example 59, 3-(7-(4-((1S,4S)-2,5-Diazabicyclo[2.2.1]heptan-2-yl)-2-chlorophenyl)-2-(pyridin-4-yl)pyrazolo[1,5-a]pyrimidin-3-yl)phenol]
< 0.0003 | CN1C[C@@H]2C[C@H]1CN2c1ccc(-c2ccnc3c(-c4cccc(O)c4)c(-c4ccncc4)nn23)c(Cl)c1 [Example 60, 3-(7-(2-Chloro-4-((1S,4S)-5-methyl-2,5-diazabicyclo[2.2.1]heptan-2-yl)phenyl)-2-(pyridin-4-yl)pyrazolo[1,5-a]pyrimidin-3-yl)phenol]
< 0.0003 | Clc1cc(N2C[C@@H]3C[C@H]2CN3)ccc1-c1ccnc2c(-c3cccc4[nH]ncc34)c(-c3ccncc3)nn12 [Example 61, 7-(4-((1S,4S)-2,5-Diazabicyclo[2.2.1]heptan-2-yl)-2-chlorophenyl)-3-(1H-indazol-4-yl)-2-(pyridin-4-yl)pyrazolo[1,5-a]pyrimidine]
< 0.0003 | CN1C[C@@H]2C[C@H]1CN2c1ccc(-c2ccnc3c(-c4cccc5[nH]ncc45)c(-c4ccncc4)nn23)c(Cl)c1 [Example 62, 7-(2-Chloro-4-((1S,4S)-5-methyl-2,5-diazabicyclo[2.2.1]heptan-2-yl)phenyl)-3-(1H-indazol-4-yl)-2-(pyridin-4-yl)pyrazolo[1,5-a]pyrimidine]
0.302 | CCOC(=O)N1C2CCC1CC(c1ccnc3c(-c4cccc(F)c4F)c(-c4ccncc4)nn13)C2 (centres unmarked) [Example 65, Ethyl 3-(3-(2,3-difluorophenyl)-2-(pyridin-4-yl)pyrazolo[1,5-a]pyrimidin-7-yl)-8-azabicyclo[3.2.1]octane-8-carboxylate]
0.329 | CCOC(=O)N1C2CCC1CC(c1ccnc3c(-c4cccc(NS(C)(=O)=O)c4)c(-c4ccncc4)nn13)C2 (centres unmarked) [Example 66, Ethyl 3-(3-(3-(methylsulfonamido)phenyl)-2-(pyridin-4-yl)pyrazolo[1,5-a]pyrimidin-7-yl)-8-azabicyclo[3.2.1]octane-8-carboxylate]
> 1 | CCN1C2CCC1CC(c1ccnc3c(-c4ccc(NC(=O)OC)cc4)c(-c4ccncc4)nn13)C2 (centres unmarked) [Example 67, Methyl 4-(7-(8-ethyl-8-azabicyclo[3.2.1]octan-3-yl)-2-(pyridin-4-yl)pyrazolo[1,5-a]pyrimidin-3-yl)phenylcarbamate]
0.566 | CCN1C2CCC1CC(c1ccnc3c(-c4ccc(NC=O)c(O)c4)c(-c4ccncc4)nn13)C2 (centres unmarked) [Example 72a, N-(4-(7-(8-Ethyl-8-azabicyclo[3.2.1]octan-3-yl)-2-(pyridin-4-yl)pyrazolo[1,5-a]pyrimidin-3-yl)-2-hydroxyphenyl)formamide]
0.417 | CCN1C2CCC1CC(c1ccnc3c(-c4ccc(NC=O)c(OC)c4)c(-c4ccncc4)nn13)C2 (centres unmarked) [Example 72b, N-(4-(7-(8-ethyl-8-azabicyclo[3.2.1]octan-3-yl)-2-(pyridin-4-yl)pyrazolo[1,5-a]pyrimidin-3-yl)-2-methoxyphenyl)formamide]
0.004 | CCN1C2CCC1CC(c1ccnc3c(-c4ccc(Cl)c5[nH]ncc45)c(-c4ccncc4)nn13)C2 (centres unmarked) [Example 79, 3-(7-Chloro-1H-indazol-4-yl)-7-(8-ethyl-8-azabicyclo[3.2.1]oct-3-yl)-2-pyridin-4-ylpyrazolo[1,5-a]pyrimidin, trifluoroacetate salt]
0.048 | CCN1C2CCC1CC(c1ccnc3c(-c4ccc(C(F)(F)F)c5[nH]ncc45)c(-c4ccncc4)nn13)C2 (centres unmarked) [Example 80, 7-(8-Ethyl-8-azabicyclo[3.2.1]oct-3-yl)-2-pyridin-4-yl-3-[7-(trifluoromethyl)-1H-indazol-4-yl]pyrazolo[1,5-a]pyrimidine, trifluoroacetate salt]
0.002 | CCN1C2CCC1CC(c1ccnc3c(-c4cc(F)c(Cl)c5[nH]ncc45)c(-c4ccncc4)nn13)C2 (centres unmarked) [Example 82, 3-(7-Chloro-6-fluoro-1H-indazol-4-yl)-7-(8-ethyl-8-azabicyclo[3.2.1]oct-3-yl)-2-pyridin-4-ylpyrazolo[1,5-a]pyrimidine, trifluoro acetate salt]
0.036 | CCOC(=O)N1C2CCC1CC(c1ccnc3c(-c4ccc5cc[nH]c5c4)c(-c4ccncc4)nn13)C2 (centres unmarked) [Example 85, Ethyl 3-[3-(1H-indol-6-yl)-2-pyridin-4-ylpyrazolo[1,5-a]pyrimidin-7-yl]-8-azabicyclo[3.2.1]octane-8-carboxylate]
0.032 | CCN1C2CCC1CC(c1ccnc3c(-c4ccc5cc[nH]c5c4)c(-c4ccncc4)nn13)C2 (centres unmarked) [Example 87, 7-(8-Ethyl-8-azabicyclo[3.2.1]oct-3-yl)-3-(1H-indol-6-yl)-2-pyridin-4-ylpyrazolo[1,5-a]pyrimidine]
0.046 | CCN1C2CCC1CC(c1ccnc3c(-c4cccc5[nH]ncc45)c(-c4ccncc4)nn13)C2 (centres unmarked) [Example 90, 7-(8-Ethyl-8-azabicyclo[3.2.1]octan-3-yl)-3-(1H-indazol-4-yl)-2-(pyridin-4-yl)pyrazolo[1,5-a]pyrimidine]
0.162 | CCOC(=O)N1C2CCC1CC(c1ccnc3c(-c4cccc(-c5nnco5)c4)c(-c4ccncc4)nn13)C2 (centres unmarked) [Example 91, Ethyl 3-(3-(3-(1,3,4-oxadiazol-2-yl)phenyl)-2-(pyridin-4-yl)pyrazolo[1,5-a]pyrimidin-7-yl)-8-azabicyclo[3.2.1]octane-8-carboxylate]
< 0.0003 | Fc1cc(N2C[C@@H]3C[C@H]2CN3)ccc1-c1ccnc2c(-c3cccc4[nH]ncc34)c(-c3ccncc3)nn12 [Example 93, 7-{4-[(1S,4S)-2,5-diazabicyclo[2.2.1]hept-2-yl]-2-fluorophenyl}-3-(1H-indazol-4-yl)-2-pyridin-4-ylpyrazolo[1,5-a]pyrimidine]
0.0001 | CN1C[C@@H]2C[C@H]1CN2c1ccc(-c2ccnc3c(-c4cccc5[nH]ncc45)c(-c4ccncc4)nn23)c(F)c1 [Example 94, 7-{2-Fluoro-4-[(1S,4S)-5-methyl-2,5-diazabicyclo[2.2.1]hept-2-yl]phenyl}-3-(1H-indazol-4-yl)-2-pyridin-4-yl pyrazolo[1,5-a]pyrimidine]
0.00059 | C[N+]1([O-])C[C@@H]2C[C@H]1CN2c1ccc(-c2ccnc3c(-c4cccc5[nH]ncc45)c(-c4ccncc4)nn23)c(F)c1 (stereo partly drawn) [Example 95, 7-{2-fluoro-4-[(1S,4S)-5-methyl-5-oxido-2,5-diazabicyclo[2.2.1]hept-2-yl]phenyl}-3-(1H-indazol-4-yl)-2-pyridin-4-ylpyrazolo[1,5-a]pyrimidine]

Compound | IC50 [µM]
CCN1C2CCC1CC(c1ccnc3c(-c4ccc(F)c(O)c4)c(-c4ccncc4)nn13)C2 (centres unmarked) [Example 64, 5-(7-(8-Ethyl-8-azabicyclo[3.2.1]octan-3-yl)-2-(pyridin-4-yl)pyrazolo[1,5-a]pyrimidin-3-yl)-2-fluorophenol] | 0.003
CCN1C2CCC1CC(c1ccnc3c(-c4ccc(C#N)c(O)c4)c(-c4ccncc4)nn13)C2 (centres unmarked) [Example 68, 4-(7-(8-Ethyl-8-azabicyclo[3.2.1]octan-3-yl)-2-(pyridin-4-yl)pyrazolo[1,5-a]pyrimidin-3-yl)-2-hydroxybenzonitrile] | 0.058
CCOC(=O)N1C2CCC1CC(c1ccnc3c(-c4cccc5[nH]ncc45)c(-c4ccncc4)nn13)C2 (centres unmarked) [Example 73, Ethyl 3-[3-(1H-indazol-4-yl)-2-pyridin-4-ylpyrazolo[1,5-a]pyrimidin-7-yl]-8-azabicyclo[3.2.1]octane-8-carboxylate] | 0.002
CCN1C2CCC1CC(c1ccnc3c(-c4ccc(C)c5[nH]ncc45)c(-c4ccncc4)nn13)C2 (centres unmarked) [Example 77, 7-(8-ethyl-8-azabicyclo[3.2.1]oct-3-yl)-3-(7-methyl-1H-indazol-4-yl)-2-pyridin-4-ylpyrazolo[1,5-a]pyrimidine, trifluoroacetate salt] | 0.017
CCOC(=O)N1C2CCC1CC(c1ccnc3c(-c4ccc(C)c5[nH]ncc45)c(-c4ccncc4)nn13)C2 (centres unmarked) [Example 78, Ethyl 3-[3-(7-Methyl-1H-indazol-4-yl)-2-pyridin-4-ylpyrazolo[1,5-a]pyrimidin-7-yl]-8-azabicyclo[3.2.1]octane-8-carboxylate, trifuoroacetate salt] | 0.0007
CCOC(=O)N1C2CCC1CC(c1ccnc3c(-c4ccc(F)c5[nH]ncc45)c(-c4ccncc4)nn13)C2 (centres unmarked) [Example 81, Ethyl 3-[3-(7-fluoro-1H-indazol-4-yl)-2-pyridin-4-ylpyrazolo[1,5-a]pyrimidin-7-yl]-8-azabicyclo[3.2.1]octane-8-carboxylate, trifluoroacetate salt] | 0.0004

same assay, conditions: Mean IC50 (uM), B-Raf IC50 Data for compounds of Formula A

Compound | IC50 [µM]
CCOC(=O)N1C2CCC1CC(c1ccnc3c(-c4ccc(Cl)c5[nH]ncc45)c(-c4ccncc4)nn13)C2 (centres unmarked) [Example 75, Ethyl 3-[3-(7-chloro-1H-indazol-4-yl)-2-pyridin-4-ylpyrazolo[1,5-a]pyrimidin-7-yl]-8-azabicyclo[3.2.1]octane-8-carboxylate] | 0.0003
CCOC(=O)N1C2CCC1CC(c1ccnc3c(-c4ccc(C(F)(F)F)c5[nH]ncc45)c(-c4ccncc4)nn13)C2 (centres unmarked) [Example 76, Ethyl 3-{2-pyridin-4-yl-3-[7-(trifluoromethyl)-1H-indazol-4-yl]pyrazolo[1,5-a]pyrimidin-7-yl}-8-azabicyclo[3.2.1]octane-8-carboxylate] | 0.004
